Measured values reported in patent US20180343865A1, “HERBICIDAL COMPOSITIONS COMPRISING ISOXAZOLO[5,4-B]PYRIDINES” (BASF SE, priority 2015, published 2018).

What was measured:
Type in all cases: in vivo
Abutilon theoprasti = test: Greenhouse postemergence herbicidal activity on ABUTH, 20 DAT
Method: (§1) For the post emergence treatment, the plants were first grown to the 2 leaf station (GS 12) and applied at GS 12-19 depending on the species. The herbicidal compositions were suspended or emulsified in water as distribution medium and sprayed using finely distributing nozzles.
(§2) The plants have been cultivated due to their individual requirements at 10 to 25° C. and. 20 to 35° C. The plants were irrigated due to their necessity.
(§3) The respective stated components A), were formulated as a 5% by weight strength emulsion concentrate containing wettol EM 31 20% and Cyclohexanone 80%. The respective stated components B), were formulated as either emulsifiable concentrates (EC), soluble liquids (SL), suspension concentrates (SC) or soluble granules (SG) as indicated in the table below. Component A, component B and the solvent system are introduced into the spray liquor used for applying the active compound. In the examples, the solvent used was water containing 1% Dash (Agnique ME 181 37.5%, Lutensit A-EP 22.5%, and Oleic Acid 5%) and 2% ammonium suflate.
(§4) In the following experiments, the herbicidal activity for the individual herbicide compounds (solo and mixture applications), the herbicidal succession was assessed 20 days after treatment (DAT). The evaluation for the damage on undesired weeds caused by the chemical compositions was carried out using a scale from 0 to 100%, compared to the untreated control plants. Here, 0 means no damage and 100 means complete destruction of the plants. The plants used in the greenhouse experiments belonged to the following species:
(§5) The value E, which corresponds to the effect (in %) that is to be expected if the activity of the individual compounds is additive, was calculated using the method of S. R. Colby (1967) “Calculating synergistic and antagonistic responses of herbicide combinations”, Weeds 15, p. 22 ff. Colby calculation for 2 way mixtures:
(§6) where: • X=effect in percent using herbicide A at an application rate a; • Y=effect in percent using herbicide B at an application rate b; • E=expected effect (in %) of A+B at application rates a+b
(§7) If the value observed in this manner is higher than the value E calculated according to Colby, a synergistic effect is present.

Polygonum convolvulus = test: Greenhouse postemergence herbicidal activity on POLCO, 20 DAT; conditions: POLCO, postemergence
Method: as §1, §2, §3, §4, §5, §6, §7

Amaranthus retroflexus = test: Greenhouse postemergence herbicidal activity on AMARE, 20 DAT; conditions: AMARE, postemergence
Method: as §1, §2, §3, §4, §5, §6, §7

Chenopodium album = test: Greenhouse postemergence herbicidal activity on CHEAL, 20 DAT
Method: as §1, §2, §3, §4, §5, §6, §7

Ipomoea hederacea = test: Greenhouse postemergence herbicidal activity on IPOHE, 20 DAT
Method: as §1, §2, §3, §4, §5, §6, §7

Kochia scoparia = test: Greenhouse postemergence herbicidal activity on KCHSC, 20 DAT
Method: as §1, §2, §3, §4, §5, §6, §7

Galium aparine = test: Greenhouse postemergence herbicidal activity on GALAP, 20 DAT
Method: as §1, §2, §3, §4, §5, §6, §7

Amaranthus palmeri = test: Greenhouse postemergence herbicidal activity on AMAPA, 20 DAT; conditions: Amaranthus palmeri, post-emergence, 480 h
Method: as §1, §2, §3, §4, §5, §6, §7

Cc1c(C(=O)c2cnn(C)c2O)ccc(S(C)(=O)=O)c1C1=NOCC1 [topramezone]
% activity, solo application topramezone (Abutilon theoprasti; 6.25 gai/ha): 93%
% activity, solo application topramezone (Polygonum convolvulus; 6.25 gai/ha): 25%
% activity, solo application topramezone (Polygonum convolvulus; 12.5 gai/ha): 25%
% activity, solo application topramezone (Polygonum convolvulus; 25 gai/ha): 68%
% activity, solo application topramezone (Amaranthus retroflexus; 25 gai/ha): 98%
% activity, solo application topramezone (Chenopodium album; 6.25 gai/ha): 30%
% activity, solo application topramezone (Chenopodium album; 12.5 gai/ha): 55%
% activity, solo application topramezone (Chenopodium album; 25 gai/ha): 55%
% activity, solo application topramezone (Chenopodium album; 50 gai/ha): 73%
% activity, solo application topramezone (Ipomoea hederacea; 6.25 gai/ha): 23%
% activity, solo application topramezone (Ipomoea hederacea; 12.5 gai/ha): 55%
% activity, solo application topramezone (Ipomoea hederacea; 25 gai/ha): 75%
% activity, solo application topramezone (Ipomoea hederacea; 50 gai/ha): 88%
% activity, solo application topramezone (Kochia scoparia; 6.25 gai/ha): 20%
% activity, solo application topramezone (Kochia scoparia; 12.5 gai/ha): 43%
% activity, solo application topramezone (Kochia scoparia; 25 gai/ha): 75%
% activity, solo application topramezone (Kochia scoparia; 50 gai/ha): 90%
% activity, solo application topramezone (Galium aparine; 6.25 gai/ha): 70%
% activity, solo application topramezone (Galium aparine; 12.5 gai/ha): 75%
% activity, solo application topramezone (Galium aparine; 25 gai/ha): 70%
% activity, solo application topramezone (Galium aparine; 50 gai/ha): 85%

O=C(O)c1cc(C2CC2)nc2onc(-c3ccc(OC(F)F)cc3)c12 [(I.B)]
inhibition at 31.25 g/ha (Abutilon theoprasti; Abutilon, post-emergence, 480 h, 31.25 gai/ha, 20 DAT, read-out: % activity, solo (I.B)): 70%
inhibition at 62.5 g/ha (Abutilon theoprasti; Abutilon, post-emergence, 480 h, 62.5 gai/ha, 20 DAT, read-out: % activity, solo (I.B)): 75%
inhibition at 125 g/ha (Abutilon theoprasti; Abutilon, post-emergence, 480 h, 125 gai/ha, 20 DAT, read-out: % activity, solo (I.B)): 73%
inhibition at 31.25 g/ha (Amaranthus retroflexus; Amaranthus retroflexus, post-emergence, 480 h, 31.25 gai/ha, 20 DAT, read-out: % activity, solo (I.B)): 89%
inhibition at 31.25 g/ha (Chenopodium album; Chenopodium album, post-emergence, 480 h, 31.25 gai/ha, 20 DAT, read-out: % activity, solo (I.B)): 53%
inhibition at 31.25 g/ha (Kochia scoparia; Bassia scoparia, post-emergence, 480 h, 31.25 gai/ha, 20 DAT, read-out: % activity, solo (I.B)): 43%
inhibition at 15.6 g/ha (Amaranthus palmeri; 15.6 gai/ha, read-out: % activity, solo (I.B)): 20%
inhibition at 31.25 g/ha (Amaranthus palmeri; 31.25 gai/ha, read-out: % activity, solo (I.B)): 70%
inhibition at 62.5 g/ha (Amaranthus palmeri; 62.5 gai/ha, read-out: % activity, solo (I.B)): 78%

COCC(C)N(C(=O)CCl)c1c(C)csc1C (stereo not drawn) [DMTA, Dimethenamid]
inhibition at 175 g/ha (Abutilon theoprasti; Abutilon, post-emergence, 480 h, 175 gai/ha, 20 DAT, read-out: % activity, solo DMTA): 0%
inhibition at 350 g/ha (Abutilon theoprasti; Abutilon, post-emergence, 480 h, 350 gai/ha, 20 DAT, read-out: % activity, solo DMTA): 0%
inhibition at 175 g/ha (Amaranthus retroflexus; Amaranthus retroflexus, post-emergence, 480 h, 175 gai/ha, 20 DAT, read-out: % activity, solo DMTA): 35%
inhibition at 350 g/ha (Amaranthus retroflexus; Amaranthus retroflexus, post-emergence, 480 h, 350 gai/ha, 20 DAT, read-out: % activity, solo DMTA): 45%
inhibition at 350 g/ha (Chenopodium album; Chenopodium album, post-emergence, 480 h, 350 gai/ha, 20 DAT, read-out: % activity, solo DMTA): 28%
% activity, solo DMTA (Kochia scoparia; 350 gai/ha, 20 DAT): 5%
inhibition at 175 g/ha (Kochia scoparia; Bassia scoparia, post-emergence, 480 h, 175 gai/ha, 20 DAT, read-out: % activity, solo DMTA): 0%
inhibition at 175 g/ha (Amaranthus palmeri; 175 gai/ha, read-out: % activity, solo DMTA): 10%
inhibition at 350 g/ha (Amaranthus palmeri; 350 gai/ha, read-out: % activity, solo DMTA): 20%
